Results published in patent US20230287003A1, “BCL6 INHIBITORS” (Cancer Research Technology Limited, priority 2018, published 2023).

Target: human BCL6 BTB domain (Trx-6×His-BCL6) / BCOR-AF633 peptide (Homo sapiens (Human), UniProt P41182)
Assay: HTRF assay
Assay type: binding
Conditions: 1 nM Trx-6×His-BCL6, 300 nM BCOR-AF633 peptide, 2 hours incubation
Protocol: The % inhibition at each concentration was calculated by normalising FRET ratio to the appropriate high (DMSO with all reagents) and low (DMSO without BCL6) controls.

Row | Compound | HTRF avg pIC50 (1 nM)
1 | Cn1c(=O)c2c(c3cc(Nc4nc(N5CCC(F)(F)CC5)ncc4Cl)ccc31)N[C@@H](C1CC1)C(F)(F)CO2 [Example 12n, (S)-10-((5-chloro-2-(4,4-difluoropiperidin-1-yl)pyrimidin-4-yl)amino)-2-cyclopropyl-3,3-difluoro-7-methyl-1,2,3,4-tetrahydro-[1,4]oxazepino[2,3-c]quinolin-6(7H)-one] | 7.94
2 | Cn1c(=O)c2c(c3cc(Nc4nc(N5CCN(CCC#N)CC5)ncc4Cl)ccc31)N[C@@H](C1CC1)C(F)(F)CO2 [Example 13f, (S)-3-(4-(5-chloro-4-((2-cyclopropyl-3,3-difluoro-7-methyl-6-oxo-1,2,3,4,6,7-hexahydro-[1,4]oxazepino[2,3-c]quinolin-10-yl)amino)pyrimidin-2-yl)piperazin-1-yl)propanenitrile] | 8.66
3 | C[C@H]1CN(c2ncc(Cl)c(Nc3ccc4c(c3)c3c(c(=O)n4C)OCC(F)(F)[C@H](C4CC4)N3)n2)CCO1 [Example 12t, (S)-10-((5-chloro-2-((S)-2-methylmorpholino)pyrimidin-4-yl)amino)-2-cyclopropyl-3,3-difluoro-7-methyl-1,2,3,4-tetrahydro-[1,4]oxazepino[2,3-c]quinolin-6(7H)-one] | 8.46
4 | (R)-10-((5-chloro-2-((R)-4,4-difluoro-3- hydroxypiperidin-1-yl)pyrimidin-4-yl)amino)-2-cyclopropyl-7- methyl-1,2,3,4-tetrahydro-[1,4]oxazepino[2,3-c]quinolin-6(7H)- one or (R)-10-((5-chloro-2((S)-4,4-difluoro-3-hydroxypiperidin-1- yl)pyrimidin-4-yl)amino)-2-cyclopropyl-7-methyl-1,2,3,4- tetrahydro-[1,4]oxazepino[2,3-c]quinolin-6(7H)-one [Example 12y] | 7.73
5 | C[C@H]1C[C@@H](O)CN(c2ncc(Cl)c(Nc3ccc4c(c3)c3c(c(=O)n4C)OCC(F)(F)[C@H](C4CC4)N3)n2)C1 (single isomer, unassigned) [Example 13d, (S)-10-((5-chloro-2-((3R,5S)-3-hydroxy-5-methylpiperidin-1-yl)pyrimidin-4-yl)amino)-2-cyclopropyl-3,3-difluoro-7-methyl-1,2,3,4-tetrahydro-[1,4]oxazepino[2,3-c]quinolin-6(7H)-one or (S)-10-((5-chloro-2-((3S,5R)-3-hydroxy-5-methylpiperidin-1-yl)pyrimidin-4-yl)amino)-2-cyclopropyl-3,3-difluoro-7-methyl-1,2,3,4-tetrahydro-[1,4]oxazepino[2,3-c]quinolin-6(7H)-one] | 8.70
6 | C[C@H]1COC(=O)c2c(c3cc(Nc4nc(N5CCC6(CCCN(C)C6=O)CC5)ncc4Cl)ccc3n(C)c2=O)N1 [Example 8e, (S)-10-((5-chloro-2-(2-methyl-1-oxo-2,9-diazaspiro[5.5]undecan-9-yl)pyrimidin-4-yl)amino)-2,7-dimethyl-2,3-dihydro-[1,4]oxazepino[6,5-c]quinoline-5,6(1H,7H)-dione] | 6.69
7 | (S)-10-((5-chloro-2-((R)-4,4-difluoro-3- (hydroxymethyl)piperidin-1-yl)pyrimidin-4-yl)amino)-2-cyclopropyl- 3,3-difluoro-7-methyl-1,2,3,4-tetrahydro-[1,4]oxazepino[2,3-c]quinolin- 6(7H)-one or (S)-10-((5-chloro-2-((S)-4,4-difluoro-3- (hydroxymethyl)piperidin-1-yl)pyrimidin-4-yl)amino)-2-cyclopropyl- 3,3-difluoro-7-methyl-1,2,3,4-tetrahydro-[1,4]oxazepino[2,3-c]quinolin- 6(7H)-one [Example 12p] | 8.34
8 | Cn1c(=O)c2c(c3cc(Nc4nc(N5C6CCCC5CC6)ncc4Cl)ccc31)N[C@@H](C1CC1)COC2=O [Example 8j, (2S)-10-((2-(8-azabicyclo[3.2.1]octan-8-yl)-5-chloropyrimidin-4-yl)amino)-2-cyclopropyl-7-methyl-2,3-dihydro-[1,4]oxazepino[6,5-c]quinoline-5,6(1H,7H)-dione] | 6.65
9 | C[C@@H]1CN(c2ncc(Cl)c(Nc3ccc4c(c3)c3c(c(=O)n4C)OCC[C@H](C4CC4)N3)n2)C[C@H](C)[C@H]1F [Example 12e, (R)-10-((5-chloro-2-((3S,4R,5R)-4-fluoro-3,5-dimethylpiperidin-1-yl)pyrimidin-4-yl)amino)-2-cyclopropyl-7-methyl-1,2,3,4-tetrahydro-[1,4]oxazepino[2,3-c]quinolin-6(7H)-one] | 6.93
10 | C[C@@H]1CN(c2ncc(Cl)c(Nc3ccc4c(c3)c3c(c(=O)n4C)C(=O)OC[C@H](C4CC4)N3)n2)C[C@H](C)O1 [Example 8n, (S)-10-((5-chloro-2-((2S,6R)-2,6-dimethylmorpholino)pyrimidin-4-yl)amino)-2-cyclopropyl-7-methyl-2,3-dihydro-[1,4]oxazepino[6,5-c]quinoline-5,6(1H,7H)-dione] | 6.19
11 | CNCCn1c(=O)c2c(c3cc(Nc4nc(N5C[C@@H](C)C(F)(F)[C@@H](C)C5)ncc4Cl)ccc31)N[C@@H](C1CC1)CCO2 [Example 17a, (R)-10-((5-chloro-2-((3S,5R)-4,4-difluoro-3,5-dimethylpiperidin-1-yl)pyrimidin-4-yl)amino)-2-cyclopropyl-7-(2-(methylamino)ethyl)-1,2,3,4-tetrahydro-[1,4]oxazepino[2,3-c]quinolin-6(7H)-one] | 7.15
12 | CC1CNC(=O)c2c(c3cc(Nc4ccnc(Cl)c4C#N)ccc3n(C)c2=O)N1 (stereo not shown) [Example 18a, 2-chloro-4-((2,7-dimethyl-5,6-dioxo-2,3,4,5,6,7-hexahydro-1H-[1,4]diazepino[6,5-c]quinolin-10-yl)amino)nicotinonitrile] | 6.58
13 | CN1CC2CC(C1)N2c1ncc(Cl)c(Nc2ccc3c(c2)c2c(c(=O)n3C)OCC(F)(F)[C@H](C3CC3)N2)n1 [Example 13h, (2S)-10-((5-chloro-2-(3-methyl-3,6-diazabicyclo[3.1.1]heptan-6-yl)pyrimidin-4-yl)amino)-2-cyclopropyl-3,3-difluoro-7-methyl-1,2,3,4-tetrahydro-[1,4]oxazepino[2,3-c]quinolin-6(7H)-one: formic acid (1:1)] | 8.43

Same assay, conditions: HTRF avg pIC50 (1 nM), 1 nM Trx-6×His-BCL6, 300 nM BCOR-AF633 peptide, 2 hours incubation

Row | Compound | IC50 [nM]
14 | CC1Nc2c(c(=O)n(C)c3ccc(Nc4ccnc(Cl)c4C#N)cc23)C(=O)OC1C (stereo not shown) [Example 6d, 2-chloro-4-((2,3,7-trimethyl-5,6-dioxo-1,2,3,5,6,7-hexahydro-[1,4]oxazepino[6,5-c]quinolin-10-yl)amino)nicotinonitrile] | 214
15 | CC1Nc2c(c(=O)n(C)c3ccc(Nc4nc(N5C[C@H](C)C[C@H](C)C5)ncc4Cl)cc23)C(=O)OC1C (mixture of isomers) [Example 8q, rac-(2S,3R)-10-((5-chloro-2-((3S,5R)-3,5-dimethylpiperidin-1-yl)pyrimidin-4-yl)amino)-2,3,7-trimethyl-2,3-dihydro-[1,4]oxazepino[6,5-c]quinoline-5,6(1H,7H)-dione or rac-(2S,3S)-10-((5-chloro-2-((3S,5R)-3,5-dimethylpiperidin-1-yl)pyrimidin-4-yl)amino)-2,3,7-trimethyl-2,3-dihydro-[1,4]oxazepino[6,5-c]quinoline-5,6(1H,7H)-dione] | 479

Same assay, conditions: read-out: IC50 in the HTRF assay

Row | Compound | IC50 [nM]
16 | Cn1c(=O)c2c(c3cc(Nc4ccnc(Cl)c4C#N)ccc31)NC(C)(C)COC2=O [2-chloro-4-((2,2,7-trimethyl-5,6-dioxo-1,2,3,5,6,7-hexahydro-[1,4]oxazepino[6,5-c]quinolin-10-yl)amino)nicotinonitrile] | > 2500
